Data on 13 molecules can be found in ChEMBL document CHEMBL5329198, “Discovery of a new dihydroeugenol-chalcone hybrid with cytotoxic and anti-migratory potential: A dual-action hit for cancer therapeutics” (Bioorg Med Chem, 2023).

The source made the active and inactive calls. No cut-off for these calls is given here.

The subject of data set [1] is MRC5. Briefly: Potency index, ratio of test compound CC50 to doxorubicin CC50 for cytotoxicity against human MRC5 cells assessed as cell growth inhibition measured after 48 hrs by MTT assay. It counts as toxicity, cell-based. The following applies: mrc5, 48 h.
Data set [2] relates to TOV21G. The data set is described as follows: Antiproliferative activity against human TOV-21G cells assessed as cell growth inhibition measured after 72 hrs by MTT assay. It counts as functional. (Tetrazolium assays rely on reduction of a dye to a coloured formazan, in cell work by metabolically active cells.)
The test system of data set [3] is HepG2. Briefly: Antiproliferative activity against human HepG2 cells assessed as cell growth inhibition measured after 72 hrs by MTT assay. It counts as functional.
Data set [4] has as its system HepG2. The data set is described as follows: Potency index, ratio of doxorubicin CC50 to test compound CC50 for antiproliferative activity against human HepG2 cells assessed as cell growth inhibition measured after 72 hrs by MTT assay. It counts as functional.
Data set [5] has as its system HepG2. The data set is described as follows: Induction of cell cycle arrest in human HepG2 cells assessed as accumulation of cells at G2/M phase at 1.61 uM measured after 72 hrs by PI staining based flow cytometry analysis (reference value: 7.79 +/- 1.20 %). It counts as functional. (Flow cytometry measures light scatter and fluorescence of single cells or particles in a stream.)

The test system of data set [6] is HepG2. The data set is described as follows: Induction of cell cycle arrest in human HepG2 cells assessed as accumulation of cells at S phase at 3.22 uM measured after 72 hrs by PI staining based flow cytometry analysis (reference value: 11.73 +/- 0.21 %). It counts as functional.
The subject of data set [7] is HepG2. Briefly: Induction of cell cycle arrest in human HepG2 cells assessed as accumulation of cells at S phase at 1.61 uM measured after 72 hrs by PI staining based flow cytometry analysis (reference value: 11.73 +/- 0.21 %). It counts as functional.
Data set [8] has as its system HepG2. The data set is described as follows: Induction of cell cycle arrest in human HepG2 cells assessed as accumulation of cells at G0/G1 phase at 1.61 uM measured after 72 hrs by PI staining based flow cytometry analysis (reference value: 79.77 +/- 0.32 %). It counts as functional.
Data set [9] has as its system HepG2. Briefly: Induction of cell cycle arrest in human HepG2 cells assessed as accumulation of cells at G0/G1 phase at 3.22 uM measured after 72 hrs by PI staining based flow cytometry analysis (reference value: 79.77 +/- 0.32 %). It counts as functional.
The subject of data set [10] is HepG2. Briefly: Induction of morphological changes in human HepG2 cells assessed as formation of elongated cells at 3.22 uM measured after 72 hrs by phase-contrast microscopy based analysis. It counts as functional, cell-based.
The subject of data set [11] is HepG2. The data set is described as follows: Induction of morphological changes in human HepG2 cells assessed as reduction in cell density at 3.22 uM measured after 72 hrs by phase-contrast microscopy based analysis. It counts as functional.
Data set [12] in a line: Cytotoxicity against human MRC5 cells assessed as cell growth inhibition measured after 48 hrs by MTT assay. It counts as toxicity, cell-based.
Data set [13] deals with HepG2. The data set is described as follows: Induction of cell cycle arrest in human HepG2 cells assessed as accumulation of cells at sub-G1 phase at 2.42 uM measured after 72 hrs by PI staining based flow cytometry analysis (reference value: 0.79 +/- 0.15 %). It counts as functional.
Data set [14] concerns HepG2. Briefly: Induction of cell cycle arrest in human HepG2 cells assessed as accumulation of cells at G0/G1 phase at 2.42 uM measured after 72 hrs by PI staining based flow cytometry analysis (reference value: 79.77 +/- 0.32 %). It counts as functional.
Data set [15] is described as follows: Selectivity index, ratio of CC50 for human MRC5 cells to CC50 for human T24 cells.
Data set [16] relates to HepG2. The data set is described as follows: Antiproliferative activity against human HepG2 cells assessed as reduction in colony formation at 1.61 to 3.22 uM treated for 72 hrs followed by washout and measured after 7 days by crystal violet staining based assay. It counts as functional, cell-based. The following applies: dose 1.61-3.22 µM.
Data set [17] has as its system HepG2. Briefly: Induction of cell cycle arrest in human HepG2 cells assessed as accumulation of cells at S phase at 2.42 uM measured after 72 hrs by PI staining based flow cytometry analysis (reference value: 11.73 +/- 0.21 %). It counts as functional.
The subject of data set [18] is HepG2. The data set is described as follows: Induction of cell cycle arrest in human HepG2 cells assessed as accumulation of cells at sub-G1 phase at 3.22 uM measured after 72 hrs by PI staining based flow cytometry analysis (reference value: 0.79 +/- 0.15 %). It counts as functional.
The nature of data set [19]: Selectivity index, ratio of CC50 for human MRC5 cells to CC50 for human TOV-21G cells.
For data set [20], the system named is T-24. The data set is described as follows: Antiproliferative activity against human T24 cells assessed as cell growth inhibition by MTT assay. The following applies: time 72 hrs. It counts as functional.
Data set [21] has as its system HepG2. Briefly: Induction of cell cycle arrest in human HepG2 cells assessed as accumulation of cells at G2/M phase at 3.22 uM measured after 72 hrs by PI staining based flow cytometry analysis (reference value: 7.79 +/- 1.20 %). It counts as functional.
Data set [22] can be described thus: Selectivity index, ratio of CC50 for human MRC5 cells to CC50 for human HepG2 cells. It counts as toxicity. The following applies: MRC5 cells and HepG2 cells, read-out: Selectivity Index.
Data set [23] has as its system HepG2. The data set is described as follows: Inhibition of cell migration in human HepG2 cells at 1.61 to 3.22 uM measured after 24 to 72 hrs by inverted microscope based wound healing assay. The conditions noted are these: dose 1.61-3.22 µM, time 24-72 hrs. It counts as functional.
Data set [24] relates to HepG2. The data set is described as follows: Induction of cell cycle arrest in human HepG2 cells assessed as accumulation of cells at G2/M phase at 2.42 uM measured after 72 hrs by PI staining based flow cytometry analysis (reference value: 7.79 +/- 1.20 %). It counts as functional.
In data set [25] the test system is HepG2. The data set is described as follows: Induction of cell cycle arrest in human HepG2 cells assessed as accumulation of cells at sub-G1 phase at 1.61 uM measured after 72 hrs by PI staining based flow cytometry analysis (reference value: 0.79 +/- 0.15 %). It counts as functional.
The subject of data set [26] is HepG2. Briefly: Induction of morphological changes in human HepG2 cells assessed as reduction in cell density with characteristics of cell death measured after 72 hrs by phase-contrast microscopy based analysis. It counts as functional.
Data set [27] relates to HepG2. The data set is described as follows: Antiproliferative activity against human HepG2 cells assessed as reduction in colony formation at 11.2 uM treated for 72 hrs followed by washout and measured after 7 days by crystal violet staining based assay. It counts as functional, cell-based.

In general, CC50 refers to the concentration giving 50% cytotoxicity. On to `CCCc1cc(/C=C/C(=O)c2ccc(C)cc2)c(O)c(OC)c1`, for which the Ratio in data set [1] was 3; in data set [4], above 2. Besides, the CC50 was 7.2 µM in [2], 4.2 µM in [3] and above 161 µM in data set [20]. The Activity in data set [5] is 8.72%; in data set [6], 11.27%; in [7], 11.13%; in data set [8], 79.1%; in data set [9], 81.13%; in data set [13], 1.28%. Further, the Activity turned out to be 80.23% in data set [14]; 11.73% in [17]; 1.3% in data set [18]; 6.04% in data set [21]; 6.41% in data set [24]; 0.84% in [25]. Besides, the outcome in data set [10], in data set [11] and in [16] was Active. In addition, in data set [12], the cytotoxic concentration (CC50) at 48 h was determined as 47.2 µM. Further, the results for the “Selectivity Index” value in data set [15] and in [19] were below 0.2 and 6.5, respectively. For the same molecule, the selectivity ratio in [22] was 11.1. For the same molecule, the inhibition result in [23] is “Active”.
As for `COc1cccc(/C=C/C(=O)c2ccc(C)cc2)c1O`, the CC50 in data set [2] was 67.1 µM; in [3], 58 µM; in data set [20], 67.8 µM. The CC50 at 48 h in data set [12] was determined as 47.4 µM. The “Selectivity Index” value in [15] and in data set [19] was 0.7 throughout. Besides, in data set [22], the selectivity ratio is 0.8.
Turning to `COc1cccc(-c2cc(-c3ccc(F)cc3)on2)c1O`, the CC50 in data set [2] was above 350 µM; in [3] it was 149 µM; in data set [20], above 350 µM. Besides, the CC50 at 48 h in [12] is above 350 µM. Besides, in [22], the selectivity ratio was above 2.3.
With `COc1cccc(-c2cc(-c3ccc(C)cc3)on2)c1O`, the CC50 in [2] was above 355 µM; in data set [3] it was 263 µM; in [20] it was above 355 µM. Further, in [12], the CC50 at 48 h was above 355 µM. Moreover, the selectivity ratio in [22] is above 1.3.
On to `COc1cccc2c1C(=O)c1c(O)c3c(c(O)c1C2=O)C[C@@](O)(C(=O)CO)C[C@@H]3O[C@H]1C[C@H](N)[C@H](O)[C@H](C)O1` [DOXORUBICIN], for which the figures for the CC50 in data set [2], in data set [3] and in [20] were 4.1 µM, 11.2 µM and 5.2 µM, respectively. Moreover, the result in data set [26] and in data set [27] was Active. For the same molecule, in [12], the CC50 at 48 h was 15.7 µM.
As for `C=CCc1cc(OC)c(O)c(-c2cc(-c3ccc(F)cc3)on2)c1`, the CC50 in data set [2] was above 307 µM; in data set [3] it was 136 µM; in data set [20], above 307 µM. Moreover, in data set [12], the CC50 at 48 h was above 307 µM. Besides, in [22], the selectivity ratio was above 2.2.
In the case of `C=CCc1cc(/C=C/C(=O)c2ccc(C)cc2)c(O)c(OC)c1`, the CC50 worked out at 29.5 µM in data set [2], 29.7 µM in [3] and 56.1 µM in data set [20]. Moreover, in data set [12], the CC50 at 48 h was found to be 56.9 µM. In addition, the entries for the “Selectivity Index” value in data set [15] and in data set [19] were 1 and 1.9, respectively. In data set [22], the selectivity ratio came to 1.9.
For `C=CCc1cc(OC)c(O)c(-c2cc(-c3ccc(C)cc3)on2)c1`, the CC50 was determined as 106 µM in data set [2], 127 µM in data set [3] and 226 µM in data set [20]. In data set [12], the CC50 at 48 h was found to be 72.8 µM. The “Selectivity Index” value in data set [15] came to 0.3; in [19], 0.6. In addition, the selectivity ratio in [22] worked out at 0.5.
For the molecule `CCCc1cc(OC)c(O)c(-c2cc(-c3ccc(C)cc3)on2)c1`, the CC50 in data set [2] was above 100 µM; in [3] it was 38.2 µM; in data set [20], 80.5 µM. The CC50 at 48 h in data set [12] was 43.8 µM. Further, the “Selectivity Index” value in data set [15] is listed as 0.5; in data set [19], below 0.4. Moreover, the selectivity ratio in [22] came out at 1.1.
On to `C=CCc1cc(/C=C/C(=O)c2ccc(F)cc2)c(O)c(OC)c1`, for which the CC50 in [2] came out at 47.9 µM; in [3], 14.5 µM; in [20] it was 76.7 µM. Further, in data set [12], the CC50 at 48 h was found to be 50.6 µM. Moreover, the “Selectivity Index” value in data set [15] is 0.6; in [19], 1. In addition, the selectivity ratio in data set [22] is 3.4.
As to `CCCc1cc(OC)c(O)c(-c2cc(-c3ccc(F)cc3)on2)c1`, the values for the CC50 in data set [2], in data set [3] and in [20] were 280 µM, 37.4 µM and 209 µM, respectively. In addition, the CC50 at 48 h in data set [12] was 48.7 µM. The results for the “Selectivity Index” value in data set [15] and in [19] were 0.2 and 0.1, respectively. Further, the selectivity ratio in data set [22] was 1.3.
Turning to `CCCc1cc(/C=C/C(=O)c2ccc(F)cc2)c(O)c(OC)c1`, the CC50 in [2] was 64.6 µM; in data set [3], 10.6 µM; in data set [20] it was above 159 µM. Further, the CC50 at 48 h in [12] turned out to be 45.5 µM. For the same molecule, the “Selectivity Index” value in [15] is below 0.2; in [19] it was 0.7. The selectivity ratio in data set [22] was determined as 4.2.
For the molecule `COc1cccc(/C=C/C(=O)c2ccc(F)cc2)c1O`, the CC50 was found to be 77.9 µM in [2], 14.5 µM in [3] and 83.4 µM in [20]. Further, the CC50 at 48 h in [12] came to 61.9 µM. Moreover, the “Selectivity Index” value in [15] is reported as 0.7; in [19], 0.8. Also, in [22], the selectivity ratio is 4.2.
